In US20230312639A1, “GPER PROTEOLYTIC TARGETING CHIMERAS” (University of Iowa Research Foundation, priority 2020, published 2023):
Residues, ends and D or L forms follow the SMILES beside them. *: point of attachment. Cbz = O=C(OCc1ccccc1)*

How the values were obtained:
[1] = molecular target: T1, recombinant HA-tagged GPER (Homo sapiens, UniProt Q99527); test: HA immunoblot of lysates of HEK293 cells stably expressing HA-tagged GPER; format: cell-based; conditions: various concentrations, 16 hr
T1 construct: expressed in transfected cells
T1 sequence (Q99527 whole entry): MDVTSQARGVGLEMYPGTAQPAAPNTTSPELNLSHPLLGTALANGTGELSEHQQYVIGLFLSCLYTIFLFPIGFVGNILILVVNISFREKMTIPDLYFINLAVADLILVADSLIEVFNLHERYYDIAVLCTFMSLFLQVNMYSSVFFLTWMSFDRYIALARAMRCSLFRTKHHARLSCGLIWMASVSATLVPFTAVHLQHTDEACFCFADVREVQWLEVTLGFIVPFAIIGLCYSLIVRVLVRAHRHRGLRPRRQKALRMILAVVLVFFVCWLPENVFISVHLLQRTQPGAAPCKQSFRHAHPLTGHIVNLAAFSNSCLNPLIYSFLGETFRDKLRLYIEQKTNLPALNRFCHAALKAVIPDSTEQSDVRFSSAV
Protocol: FIG. 38. […] HEK293 cells stably expressing recombinant HA-tagged GPER were treated with various concentrations of CIMBA-PROTAC-001 or partial PROTAC for 16 hr and then lysed in detergent. Equivalent amounts of protein lysate were resolved in SDS-polyacrylamide gels and then electrotransferred onto PVDF […] membranes. Membranes were probed with rabbit HA antibodies, top. HA- antibodies were stripped from the membrane at low pH and the membrane was then probed with […] transferrin receptor (TFNR) antibodies as a specificity and loading control.

[2] = tested on: ERs (ERa and ERb); test: Fluorescence polarization competitive binding with E2-FITC in cytosolic fractions from MCF-7 cells; parameters: species or system human
Protocol: ER binding was measured using cytosolic fractions prepared from MCF-7 cells by fluorescence polarization. MCF-7 (10^6 cells) were detached in EDTA, cell homogenates were prepared using a Dounce homogenizer and subcellular fractions were isolated by differential centrifugation as previously described (Filardo et al, 2002). The protein concentration of each fraction was determined by bichinchoninic acid (BCA) assay (Pierce ™ BCA protein assay kit, Thermo Fisher). For saturation binding assay of the probe, different concentrations of cytosolic fraction were diluted in assay buffer (10 mM Tris-HCl, pH 7.4; 50 mM KCl, 10% glycerol, 0.1 mM dithiothreitol (DTT), 1 ug/mL BGG, 10 nM protease inhibitor cocktail (Roche) to a final volume of 200 uL containing 10 nM Ez-FITC. The mixture was incubated at ambient temperature for 1 hour and interaction of the probe with cytosolic protein was determined by fluorescence polarization (FP). For competitive binding assay, an aliquot of cytosolic fraction and E2-FITC (10 nM final concentration) was mixed and incubated at 4° C. for 1 hour. Then different concentrations of drugs and controls were added to the mixture. The mixture was incubated for an additional hour and then subjected to FP. All samples were measured in triplicate. Negative controls (only cytosolic fraction or only E2-FITC) and positive control (E2-FITC and cytosolic fraction at 100% binding without treatment) were included. Relative binding affinities were expressed as the percentage of FP recorded from treated wells compared to the positive control. FP values in millipolarization units (mP) were measured at ex/em wavelength of 485 nm/530 nm respectively using the Spectra Max plus 384 Microplate Spectrophotometer (Molecular Devices, Sunnyvale, CA) in 96-well, black, flat-bottom microplates (Greiner Bio-One North America, Inc., Monroe, NC). Kd values of the probe were determined by nonlinear regression fitting of the saturation curves, while IC50 values of treatment were determined by nonlinear regression fitting of the competition curves.
In contrast to GPER, ERa and ERb are intracellular receptors that are concentrated in the cytoplasm and in the nucleus. […] A saturation analysis was performed using 10 nM E2-FITC and increasing concentrations of cytosolic protein (FIG. 25D).

[3] = molecular target: T2, GPER (Homo sapiens, UniProt Q99527); conditions: Filardo et al., 2007; cited from earlier work
T2 sequence (Q99527 whole entry): as above

[4] = molecular target: T2, GPER; conditions: Filardo et al., 2007; cited from earlier work; remark: listed apart in the source
[5] = molecular target: HiBiT-GPER (Homo sapiens, UniProt Q99527); test: Nano-BiT binary luminescence complementation, transfected HEK-293 cells, total receptor; format: cell-based; conditions: for effect on UI-EP001 / UI-EP002 degradation of HiBiT-GPER: 100 µM UI-EP001 or UI-EP002, 1 hour, MG132 10 µM, chloroquine 100 µM, E2 or aldosterone 100 nM-100 µM
Sequence of HiBiT-GPER (Q99527 whole entry): as above
Protocol: FIG. 26. […] HEK-293 cells (ERα^-, GPER^-) were transiently transfected with 50 ng HiBiT-GPER or HiBiT-ER plus pcDNA3.1(+) zeo carrier plasmid. […] (C) Histogram depicting total HiBiT-GPER and HiBiT-ER following a 1-hour treatment at […] drug or control. […] Results shown represent the mean ± S.E. of three independent experiments.
(§1) FIG. 28. […] Total receptor was then measured by binary luminescence complementation in detergent-permeabilized cells. […] Total receptor was then quantified by binary luminescence complementation. Representative luminescence data and mean values and SDs derived from three independent experiments are shown.
(§2) Transient transfections and binary Nano-Bit ™ luminescence assays. Total HiBiT-tagged GPER or ER estrogen receptors were detected in detergent-permeabilized cells by binary luminescence complementation with recombinant LgBit and substrate using the Nano-Glo HiBiT Extracellular Detection system kit (Promega Corporation, Madison, Wl). In brief, HEK293 cells (0.75 × 10^6) were seeded in 35 mm tissue culture dishes and 24 hours later were transiently transfected with 50 ng of HiBiT-GPER or HiBiT-ERa and 950 ng of pcDNA3.1(+) zeo carrier plasmid using Lipofectamine 2000 (Invitrogen, Carlsbad, CA). The next day transfected cells were harvested by trypsinization and seeded at a density of 10^4 cells/well in 96-well poly-L-lysine-coated Greiner white-bottomed microplates. On the following day, cell culture media was aspirated and replaced with 100 µL of serum-free PRF-DF12 containing E2-PROTAC, partial-PROTAC, or vehicle at various concentrations and for indicated time intervals at 37° C. […] Following treatment, total HiBiT-tagged receptor was measured in cells which were permeabilized in 0.05% Triton X-100 using HiBiT complementation reagent consisting of LgBiT protein and Nano-Gio® HiBiT substrate. Luminescence was measured using the Infinite 200 PRO multimode microplate reader from Tecan (Raleigh, NC) and reported as Relative Luminescent Units (RLU). All samples were measured in triplicate and expressed as the mean value plus or minus standard deviation.

[6] = molecular target: T3, HiBiT-ERα (Homo sapiens, UniProt P03372); test: as above; format: cell-based; conditions: for effect on UI-EP001 / UI-EP002 degradation of HiBiT-ERα: 100 µM UI-EP001 or UI-EP002, 1 hour, MG132 10 µM, chloroquine 100 µM, E2 or aldosterone 100 nM-100 µM
T3 sequence (P03372 1-595): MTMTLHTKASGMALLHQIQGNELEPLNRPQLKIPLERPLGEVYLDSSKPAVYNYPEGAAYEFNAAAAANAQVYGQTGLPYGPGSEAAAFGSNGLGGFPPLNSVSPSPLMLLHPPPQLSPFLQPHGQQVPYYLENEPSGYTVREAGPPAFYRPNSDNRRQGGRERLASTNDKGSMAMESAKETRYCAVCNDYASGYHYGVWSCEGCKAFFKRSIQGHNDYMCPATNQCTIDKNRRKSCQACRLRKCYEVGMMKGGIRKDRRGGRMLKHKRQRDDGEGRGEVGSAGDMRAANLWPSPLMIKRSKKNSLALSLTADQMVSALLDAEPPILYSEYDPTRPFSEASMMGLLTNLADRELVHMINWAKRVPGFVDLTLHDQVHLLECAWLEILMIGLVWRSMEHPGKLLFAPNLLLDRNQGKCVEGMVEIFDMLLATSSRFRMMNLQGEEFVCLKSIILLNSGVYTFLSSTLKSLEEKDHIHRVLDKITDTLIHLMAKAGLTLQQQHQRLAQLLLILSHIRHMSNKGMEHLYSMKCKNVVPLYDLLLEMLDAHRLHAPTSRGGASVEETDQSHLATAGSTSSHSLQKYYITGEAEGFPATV
Protocol: FIG. 26. […] HEK-293 cells (ERα^-, GPER^-) were transiently transfected with 50 ng HiBiT-GPER or HiBiT-ER plus pcDNA3.1(+) zeo carrier plasmid. […] Results shown represent the mean ± S.E. of three independent experiments.
as §1, §2

[7] = tested on: HCC1806 cells; test: Cell cycle analysis, propidium iodide, flow cytometry; format: cell-based, human; conditions: HCC1806, 10 µM, 24 hours
Excerpt: (§3) FIG. 30. E2-PROTACs promote estrogen receptor-dependent G2/M arrest. E2-PROTAC induced G2/M arrest in human breast cancer cell lines expressing membrane and/or intracellular estrogen receptors. […] Fixed cells were permeabilized and dyed with propidium iodide (PI). Cell cycle data were acquired on a flow cytometer and analyzed using Flow-Jo software. Data are expressed as mean ± SEM (n=3). The percentage of cells in each phase were plotted using Prism 8.0.
(§4) Cell cycle analysis. […] Following treatment, cells were harvested by trypsinization and washed twice in ice-cold PBS. Cells were then fixed in 70% ethanol at 4° C. for 30 minutes. Fixed cells were pelleted by centrifugation at 230 g for 5 minutes and the cell pellet was incubated in Krishan’s solution (3.8 mM sodium citrate (Fisher Scientific), 0.014 mM propidium iodide (AnaSpec, Fermont, Ca), 1% NP-40 (Sigma) and 2.0 mg/mL RNase A (Fisher Scientific)) for 30 minutes at 37° C. Cells were then centrifuged and washed in PBS prior to analysis using a FacScallibur flow cytometer. The data from flow cytometry were subjected to further analysis by CellQuest software version 3.3. DNA histograms generated indicate the fractions of the cell population in the sub-G1, G0-G1, S, or G2/M phase of the cell cycle.
(§5) To investigate the biological effect associated with decreased cell viability, cell cycle analysis was performed on the same four cell lines using propidium iodide staining and measured by flow cytometry 24 hours after treatment of cells with 10 µM E2-PROTAC or partial PROTAC (FIG. 30).

[8] = tested on: MCF-7 cells; test: as above; format: cell-based, human; conditions: MCF-7, 10 µM, 24 hours
Excerpt: as §3, §4, §5

[9] = tested on: SKBR3 cells; test: as above; format: cell-based, human; conditions: SKBR3, 10 µM, 24 hours
Excerpt: as §3, §4, §5

[10] = molecular target: T4, ERα (Homo sapiens, UniProt P03372); test: Immunostaining of endogenous receptors in MCF-7 cells; conditions: MCF-7, 1 hour
T4 sequence (P03372 1-595): T3 sequence (P03372 1-595)

[11] = molecular target: ERβ (Homo sapiens, UniProt Q92731); test: as above; conditions: MCF-7, 1 hour
Sequence of ERβ (Q92731 whole entry): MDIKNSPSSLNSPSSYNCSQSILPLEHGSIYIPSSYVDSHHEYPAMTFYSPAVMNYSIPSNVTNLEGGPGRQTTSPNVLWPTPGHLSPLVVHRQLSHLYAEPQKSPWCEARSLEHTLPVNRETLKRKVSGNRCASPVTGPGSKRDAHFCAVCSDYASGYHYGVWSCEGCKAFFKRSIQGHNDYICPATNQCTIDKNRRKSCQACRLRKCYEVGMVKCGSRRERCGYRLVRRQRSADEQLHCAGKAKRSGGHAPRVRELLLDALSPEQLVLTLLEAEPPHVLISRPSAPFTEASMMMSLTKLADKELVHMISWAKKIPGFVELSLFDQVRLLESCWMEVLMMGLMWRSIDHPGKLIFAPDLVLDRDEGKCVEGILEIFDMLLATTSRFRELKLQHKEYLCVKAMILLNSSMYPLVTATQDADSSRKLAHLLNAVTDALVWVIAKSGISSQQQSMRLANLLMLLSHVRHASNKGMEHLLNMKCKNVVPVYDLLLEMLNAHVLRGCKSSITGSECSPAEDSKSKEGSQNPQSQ

[12] = molecular target: T2, GPER; test: as above; conditions: MCF-7, 1 hour
[13] = molecular target: T2, GPER; test: Competitive binding assay in intact SKBR3 cells with E2-FITC as fluoro-tracer (flow cytometry); parameters: endogenous in cells; host or cells: SKBR3 human breast carcinoma cells (ATCC); conditions: concentrations as high as 10 mM
[14] = increasing doses, 1 hour, partial PROTAC 100 µM

Compound: COc1ccc(CNc2ccc(C(C)C)cc2N2CCN(C(=O)COCCOCCOCCOCC(=O)NC(C(=O)N3CC(O)CC3C(=O)NCc3ccc(-c4scnc4C)cc3)C(C)(C)C)CC2)cc1 (stereo not drawn) [CIMBA-PROTAC-001]
- degradation of recombinant GPER [1]: degrades recombinant GPER

Compound: C[C@]12CC[C@@H]3c4ccc(O)cc4C[C@@H](CCCCCCCCC[S+]([O-])CCCC(F)(F)C(F)(F)F)[C@H]3[C@@H]1CC[C@@H]2O (stereo partly drawn) [Fulvestrant]
- relative binding activity [3]: 5%
- concentration at which it functions as a GPER agonist [4]: 500 nM

Compound: CC(C)C[C@@H](C=O)NC(=O)[C@H](CC(C)C)NC(=O)[C@H](CC(C)C)NC(=O)OCc1ccccc1 [MG132] (Cbz-Leu-Leu-Leu-aldehyde)
- effect on UI-EP001 / UI-EP002 degradation of HiBiT-GPER [5]: reversed
- effect on UI-EP001 / UI-EP002 degradation of HiBiT-ERα [6]: reversed

Compound: Cc1ncsc1-c1ccc(CNC(=O)C2CC(O)CN2C(=O)C(NC(=O)COCCOCCOCCOCC(=O)O)C(C)(C)C)cc1 (stereo not drawn) [Partial PROTAC, reference compound]
- receptor present after treatment ([5]; 100 µM, 8 hrs, recombinant receptor, GPER or ER not specified): 83%
- change of HiBiT-GPER [5, 14]: did not show any significant decrease
- change of HiBiT-ERα [6, 14]: did not show any significant decrease
- cell cycle distribution [7]: much less significant shift
- cell cycle distribution [8]: much less significant shift
- cell cycle distribution [9]: much less significant shift
- nuclear ERα expression [10]: did not impact
- nuclear ERβ expression [11]: did not impact
- intracellular GPER expression [12]: did not impact
- competition for E2-FITC binding [13]: unable to compete for E2-FITC binding

Compound: C[C@]12CCC(=O)C=C1CC[C@@H]1[C@@H]2[C@@H](O)C[C@]2(C=O)[C@@H](C(=O)CO)CC[C@@H]12 [aldosterone]
- effect on UI-EP001 / UI-EP002 degradation of HiBiT-GPER [5]: not aldosterone was capable of blocking
- effect on UI-EP001 / UI-EP002 degradation of HiBiT-ERα [6]: not aldosterone was capable of blocking

Compound: CCN(CC)CCCC(C)Nc1ccnc2cc(Cl)ccc12 (stereo not drawn) [chloroquine, chloroquine diphosphate]
- effect on UI-EP001 / UI-EP002 degradation of HiBiT-GPER [5]: had no such effect
